According to ChEMBL document CHEMBL1201862, “PubChem BioAssay data set” (2004):
Active and inactive are the calls of the source.

Columns and labels:
[1] = target: T1, Corticotropin-releasing factor receptor 2/Corticotropin-releasing factor-binding protein (Homo sapiens, UniProt P24387+Q13324); assay: Dose Response confirmation of uHTS hits for small molecule antagonists of the CRF-binding protein and CRF-R2 receptor complex.; format: functional; details: read-out: IC50_Mean
T1 sequence (Q13324 whole entry): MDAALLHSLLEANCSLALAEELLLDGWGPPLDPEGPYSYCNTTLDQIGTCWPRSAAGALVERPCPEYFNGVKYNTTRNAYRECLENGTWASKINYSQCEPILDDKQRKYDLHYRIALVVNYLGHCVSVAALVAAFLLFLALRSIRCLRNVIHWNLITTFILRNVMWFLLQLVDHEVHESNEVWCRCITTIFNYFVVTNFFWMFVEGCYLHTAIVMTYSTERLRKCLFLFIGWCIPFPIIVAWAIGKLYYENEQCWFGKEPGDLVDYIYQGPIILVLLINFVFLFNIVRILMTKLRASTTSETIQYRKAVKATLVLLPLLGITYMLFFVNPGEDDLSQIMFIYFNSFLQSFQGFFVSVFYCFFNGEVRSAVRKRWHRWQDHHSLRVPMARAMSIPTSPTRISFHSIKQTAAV
T1 sequence (P24387 whole entry): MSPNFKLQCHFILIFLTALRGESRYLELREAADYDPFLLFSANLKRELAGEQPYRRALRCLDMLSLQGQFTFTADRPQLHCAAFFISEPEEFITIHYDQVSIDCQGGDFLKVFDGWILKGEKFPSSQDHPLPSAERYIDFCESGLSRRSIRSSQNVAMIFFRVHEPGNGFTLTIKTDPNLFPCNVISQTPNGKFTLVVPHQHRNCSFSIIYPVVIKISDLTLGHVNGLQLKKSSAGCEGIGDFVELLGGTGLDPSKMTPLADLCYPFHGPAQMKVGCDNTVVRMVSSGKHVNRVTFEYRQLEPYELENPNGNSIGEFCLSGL

[2] = HEp-2 cell cytotoxicity, dose response, cytotoxicity control for RSV inhibitor project, HTS (AID 2410); format: functional; details: human respiratory syncytial virus
[3] = CRF-BP/CRF-R2 complex antagonists, dose response, cell-based, uHTS hits, 384-well (AID 651639); format: functional, Homo sapiens; details: read-out: IC50_Mean
[4] = target: T1, Corticotropin-releasing factor receptor 2/Corticotropin-releasing factor-binding protein; assay: activators of CRF receptor 2 with binding protein – uHTS hits, confirmation (AID 602473); format: functional; details: read-out: EC50_Mean
[5] = inhibitors of firefly luciferase expression or activity, dose response, H4 neuroglioma cells, luminescence (AID 1990); format: functional, cell-based
[6] = target: T2, Heat shock factor protein 1 (Mus musculus, UniProt P38532); assay: inhibition of MG132-induced HSE-luciferase signal, confirmation, cell-based, NIH3T3, luminescence, dose retest (AID 2382); format: functional;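 also: NIH3T3 fibroblasts with HSF1-driven luciferase reporter stressed by proteasome inhibitor MG132; luminescence from HSF1-driven luciferase expression after 8 hours of MG132 stress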
T2 sequence (P38532 whole entry): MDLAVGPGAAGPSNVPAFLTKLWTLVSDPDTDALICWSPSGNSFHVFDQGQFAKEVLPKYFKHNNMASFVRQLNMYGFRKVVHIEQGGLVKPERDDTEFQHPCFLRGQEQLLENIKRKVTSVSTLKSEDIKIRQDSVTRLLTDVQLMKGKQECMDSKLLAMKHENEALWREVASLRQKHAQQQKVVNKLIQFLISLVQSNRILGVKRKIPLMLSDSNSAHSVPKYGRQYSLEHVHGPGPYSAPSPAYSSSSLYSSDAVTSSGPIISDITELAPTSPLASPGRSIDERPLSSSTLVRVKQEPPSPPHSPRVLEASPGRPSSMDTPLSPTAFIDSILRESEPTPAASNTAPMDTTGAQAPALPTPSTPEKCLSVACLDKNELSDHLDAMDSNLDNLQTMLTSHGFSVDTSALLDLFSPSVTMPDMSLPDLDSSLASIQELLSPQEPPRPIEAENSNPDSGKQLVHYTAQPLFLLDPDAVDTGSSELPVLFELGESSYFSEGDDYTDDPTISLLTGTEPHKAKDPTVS

Protein RecA = target: T3, Protein RecA (Mycobacterium tuberculosis, UniProt P9WHJ3); assay: Fluorescence Cell-Free Homogeneous Dose Retest to Identify Inhibitors of RecA-Intein Splicing Activity. [Related pubchem assays (depositor defined):AID2097, AID2223, AID489010, AID492950]; format: functional
T3 sequence (P9WHJ3 whole entry): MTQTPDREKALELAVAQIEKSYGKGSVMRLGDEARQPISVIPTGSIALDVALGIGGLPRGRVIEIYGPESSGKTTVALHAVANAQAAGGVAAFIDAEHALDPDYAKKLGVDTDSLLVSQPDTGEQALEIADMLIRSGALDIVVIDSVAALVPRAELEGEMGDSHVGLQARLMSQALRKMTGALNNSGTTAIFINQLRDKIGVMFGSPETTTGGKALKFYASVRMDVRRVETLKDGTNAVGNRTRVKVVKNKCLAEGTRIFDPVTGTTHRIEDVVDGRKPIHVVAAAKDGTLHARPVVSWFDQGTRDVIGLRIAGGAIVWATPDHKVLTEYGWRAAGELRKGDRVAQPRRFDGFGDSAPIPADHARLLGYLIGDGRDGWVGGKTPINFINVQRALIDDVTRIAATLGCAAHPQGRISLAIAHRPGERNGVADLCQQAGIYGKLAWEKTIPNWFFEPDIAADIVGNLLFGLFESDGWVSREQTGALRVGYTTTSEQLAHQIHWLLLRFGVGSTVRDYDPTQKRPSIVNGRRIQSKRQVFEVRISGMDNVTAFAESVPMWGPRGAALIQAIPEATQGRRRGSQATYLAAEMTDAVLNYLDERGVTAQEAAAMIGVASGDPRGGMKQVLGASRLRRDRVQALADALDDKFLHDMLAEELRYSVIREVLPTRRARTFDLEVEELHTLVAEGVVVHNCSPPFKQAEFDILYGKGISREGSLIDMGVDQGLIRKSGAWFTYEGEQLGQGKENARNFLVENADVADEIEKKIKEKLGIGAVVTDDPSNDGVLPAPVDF

[7] = Luminescence Cell-Based Dose Response HTS to Identify Inhibitors of 5'UTR Stem-Loop Driven Prion Protein mRNA Translation in H4 Neuroglioblastoma Cells. [Related pubchem assays: 1827 (Project Summary), 1813 (Primary HTS)]; format: functional
[8] = inhibitors of SNCA 5'UTR-driven reporter translation, confirmation, H4 neuroglioma cells, luminescence (AID 1988); format: functional, cell-based
[9] = target: T4, Replicative DNA helicase DnaB (Mycobacterium tuberculosis, UniProt P9WMR3); assay: DnaB intein splicing inhibitors, dose response, biochemical, cell-free fluorescence (AID 449749); format: functional
T4 sequence (P9WMR3 whole entry): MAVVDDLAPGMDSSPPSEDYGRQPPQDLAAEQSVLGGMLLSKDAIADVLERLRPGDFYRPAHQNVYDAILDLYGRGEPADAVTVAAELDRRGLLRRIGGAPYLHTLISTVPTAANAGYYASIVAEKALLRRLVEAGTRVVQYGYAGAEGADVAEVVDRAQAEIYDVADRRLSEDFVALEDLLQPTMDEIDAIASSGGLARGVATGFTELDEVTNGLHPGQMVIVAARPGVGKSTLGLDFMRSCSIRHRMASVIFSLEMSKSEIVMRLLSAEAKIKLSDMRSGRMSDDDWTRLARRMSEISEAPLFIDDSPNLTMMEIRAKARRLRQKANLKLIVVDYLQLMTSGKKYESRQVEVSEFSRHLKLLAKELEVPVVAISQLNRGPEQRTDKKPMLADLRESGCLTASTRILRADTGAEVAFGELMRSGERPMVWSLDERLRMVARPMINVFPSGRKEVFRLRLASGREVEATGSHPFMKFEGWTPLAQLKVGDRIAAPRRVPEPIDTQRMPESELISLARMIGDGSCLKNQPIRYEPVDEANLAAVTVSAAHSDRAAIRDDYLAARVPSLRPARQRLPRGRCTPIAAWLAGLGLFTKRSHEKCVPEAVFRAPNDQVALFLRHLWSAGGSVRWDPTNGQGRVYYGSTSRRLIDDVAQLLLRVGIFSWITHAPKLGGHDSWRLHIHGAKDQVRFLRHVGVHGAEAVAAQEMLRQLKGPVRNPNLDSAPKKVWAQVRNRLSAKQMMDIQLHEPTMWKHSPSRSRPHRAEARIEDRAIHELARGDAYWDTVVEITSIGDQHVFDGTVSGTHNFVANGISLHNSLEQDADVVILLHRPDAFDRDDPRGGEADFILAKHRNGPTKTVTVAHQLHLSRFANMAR

[10] = Luminescence-based dose response cell-based high throughput screening assay for cytotoxic compounds using the IEC-6 intestinal epithelial cell line. [Related pubchem assays: 1858 (Summary AID.), 1825 (Counterscreen.), 1907 (Confirmation screen.)]; format: functional
NADPH oxidase 1 = target: T5, NADPH oxidase 1 (Homo sapiens, UniProt Q9Y5S8); assay: Luminescence-based cell-based dose response assay to identify inhibitors of NADPH oxidase 1 (NOX1).; format: functional
T5 sequence (Q9Y5S8 whole entry): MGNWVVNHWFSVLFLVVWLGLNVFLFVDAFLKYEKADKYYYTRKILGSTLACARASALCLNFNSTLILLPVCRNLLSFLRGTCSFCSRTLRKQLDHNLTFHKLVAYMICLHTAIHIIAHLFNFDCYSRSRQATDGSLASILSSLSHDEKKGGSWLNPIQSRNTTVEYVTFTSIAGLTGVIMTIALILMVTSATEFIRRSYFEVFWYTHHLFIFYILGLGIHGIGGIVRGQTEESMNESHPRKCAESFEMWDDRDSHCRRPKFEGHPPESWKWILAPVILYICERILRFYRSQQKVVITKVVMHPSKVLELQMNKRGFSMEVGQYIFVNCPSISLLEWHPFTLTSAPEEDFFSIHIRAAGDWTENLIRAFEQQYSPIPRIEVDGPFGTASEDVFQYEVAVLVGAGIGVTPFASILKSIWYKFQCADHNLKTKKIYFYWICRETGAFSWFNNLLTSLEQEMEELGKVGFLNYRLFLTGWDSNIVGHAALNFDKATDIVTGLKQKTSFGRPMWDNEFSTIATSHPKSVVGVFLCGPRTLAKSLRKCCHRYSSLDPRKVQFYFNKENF

## O=C(O)c1ccc(-c2nc(-c3ccc(Cl)cc3Cl)cs2)cc1
[1]
  IC50: 3.82 µM (active)
[2]
  CC50: > 50 µM (active)
cells
  IC50: 44.2 µM (active)
[3]
  IC50: > 20 µM (inactive)
[4]
  EC50: > 53 µM (inactive)

## O=C1C=C(NCCN2CCOCC2)C(=O)c2cnccc21
[5]
  EC50: 1.99 µM (active)
[6]
  EC50: 10.4 µM (active)
Protein RecA
  EC50: 0.536 µM (active)
[7]
  EC50: 6.81 µM (active)
[8]
  EC50: 1.88 µM (active)
[9]
  AC50: 0.979 µM (active)
[10]
  IC50: 0.512 µM (active)

## CC(=NNc1ccc(C(=O)O)cc1)c1ccc2c(c1)Nc1ccccc1S2
NADPH oxidase 1
  IC50: 0.053 µM (active)
